Patent US10272055B2, “Therapeutic compounds and methods” (Regents of the University of Minnesota, priority 2014, dated 2019)
Several values for one entry are separate records, joined by “and”; a condition that tells them apart may be missing. Identical values can stand only once. Entries after “also recorded” stand apart in the source; their conditions may differ.

Key:
CYP3A4 epoxygenase = CYP3A4 epoxygenase (Homo sapiens, UniProt P08684); assay: CYP3A4 Supersome epoxygenase assay: EET synthesis from arachidonic acid, LC-ESI-MS/MS
Method: Measurements are reported as percentage of control reactions performed with vehicle but no compound. A ^13C-EET recovery standard was used to control for recovery of EETs from extractions. […] EET measurements in these Supersome experiments are expressed as percentage of control reactions. Absolute EET measurements are determined by subtraction of regioisomer values in a baseline reaction lacking NADPH. Measurements were performed in triplicate and values are expressed as the mean±SD.
After the reaction, EETs were then extracted with 1 mL dichloromethane and reconstituted in methanol and analyzed by LC-ESI-MS/MS.

MCF-7 cell line = assay: MTT growth assay, MCF-7 line; type: cell-based
Method: The growth of the MCF-7 line was measured by MTT assay at 24 hours. Cells were plated in complete media in the presence of serum (10% FBS) and cultured at 37° C. with 5% CO2 and treated with the biguanide or DMSO vehicle. Growth was measured at 24 hours by MTT assay.
Cells were plated in complete media in the presence of serum (10% FBS) and cultured at 37° C. with 5% CO2 and treated with HBB or DMSO vehicle. Growth was measured at 24 hours by MTT assay.

MDA-MB-231 = assay: MTT growth assay, MDA-MB-231 line; type: cell-based; conditions: MTT assay at 24 hours, 10% FBS
Method: FIG. 30 illustrates HBB inhibits proliferation of MCF7 and MDA-MB-231 lines. Cells were plated in complete media in the presence of serum (10% FBS) and cultured at 37° C. with 5% CO2 and treated with HBB or DMSO vehicle. Growth was measured at 24 hours by MTT assay. Results were converted to percent growth of control and represented as mean±S.E. (n=8).

CYP3A4D3-24 = CYP3A4D3-24 (Homo sapiens, UniProt P08684); assay: Spectral binding (spin shift) to CYP3A4D3-24; conditions: vs metformin
CYP3A4 nanodiscs = CYP3A4 nanodiscs (Homo sapiens, UniProt P08684); assay: CYP3A4 nanodisc spin shift titration; type: binding; conditions: vs metformin
MDA-MB-231 xenograft = MDA-MB-231 xenograft in nude mice; type: in vivo; conditions: HBB 4 mg/kg ip daily vs PBS/vehicle
Method: FIG. 3A. MCF-7 xenograft with 3×10^6 cells in the 2nd mammary fat pad on day 0. HBB (4 mg/kg ip daily) (ν) or PBS (ρ) treatment began on day 1. * indicates P<0.05. FIG. 3B. MDAMB-231 xenograft with 1×10^6 cells in the 2nd mammary fat pad on day 0. HBB (4 mg/kg ip daily) (ν) or PBS (ρ) treatment began on day 1. N=20 mice per arm for each study; error bars are SEM.
FIG. 44A. Nude mice were inoculated with 3×10^6 MCF-7 cells and treated with vehicle (Δ) HBB at the MTD (4 mg/kg/day ip) (▪). (* indicates P<0.05). Error bars are SEM. […] The dose limiting toxicity was weight loss. At the MTD there was a well-tolerated 4% reduction of weight at 42 days (P<0.0001; data not shown). FIG. 44B. Nude mice were inoculated with 1×10^6MDA-MB-231 cells and treated with HBB at the MTD (4 mg/kg/day ip).

[1] = Tolerability in xenograft mice (MTD, weight); conditions: mouse, in vivo
Excerpt: […]. (* indicates P<0.05). Error bars are SEM. […] The dose limiting toxicity was weight loss. At the MTD there was a well-tolerated 4% reduction of weight at 42 days (P<0.0001; data not shown). […].

MDA-MB-231 line = assay: 14,15-EET protection against biguanide growth inhibition, MTT, MDA-MB-231; type: cell-based; conditions: MDA-MB-231, 1 uM 14,15-EET, 24 hours
Method: Cells were plated in complete media in the presence of serum (10% FBS) and cultured at 37° C. with 5% CO2 and treated with HBB for 24 hours in the presence and absence of 1 uM 14,15-EET. Growth was then measured at 24 hours by MTT assay.
Results are expressed as mean±standard deviation (n=8).

[2] = test system: breast cancer cells and primary cells; assay: OCR and ECAR, XF Extracellular Flux Analyzer; type: cell-based; conditions: HBB 20 uM or 40 uM vs DMSO
Method: Measuring glycolysis and oxidative metabolism. Cells were maintained in growth medium consisting of 10% FBS, at 37° C. with 5% CO2 and seeded at 100,000 cells per well in XF24-well cell culture microplates (for primary cells HUVEC and HDMVEC, plates were pre-coated with 0.2% college before seeding). Concentrated stocks of HBB was prepared in DMSO. HBB was diluted to 10× working concentration in XF assay medium (a non-buffered medium including 2 mM of L-glutamine but no sodium bicarbonate (buffering agent), glucose, or sodium pyruvate).
Before analysis, the cells were switched from culture medium to XF assay medium. Following baseline measurements, 75 μl of HBB prepared in assay medium was injected into each well to reach final working concentrations. Following the addition of HBB, OCR and ECAR were measured at fixed time interval.
Cells were maintained in growth medium consisting of 10% FBS, at 37° C. with 5% CO2 and seeded at 100,000 cells per well in XF24-well cell culture microplates (for HUVEC, plates were pre-coated with 0.2% college before seeding). Before analysis, the cells were switched from culture medium to XF assay medium. Following baseline measurements, 75 μl of HBB prepared in assay medium was injected into each well to reach final working concentrations. Following the addition of HBB, OCR and ECAR were measured at fixed interval. […]

CYP3A4 epoxygenase, sequence (P08684 whole entry): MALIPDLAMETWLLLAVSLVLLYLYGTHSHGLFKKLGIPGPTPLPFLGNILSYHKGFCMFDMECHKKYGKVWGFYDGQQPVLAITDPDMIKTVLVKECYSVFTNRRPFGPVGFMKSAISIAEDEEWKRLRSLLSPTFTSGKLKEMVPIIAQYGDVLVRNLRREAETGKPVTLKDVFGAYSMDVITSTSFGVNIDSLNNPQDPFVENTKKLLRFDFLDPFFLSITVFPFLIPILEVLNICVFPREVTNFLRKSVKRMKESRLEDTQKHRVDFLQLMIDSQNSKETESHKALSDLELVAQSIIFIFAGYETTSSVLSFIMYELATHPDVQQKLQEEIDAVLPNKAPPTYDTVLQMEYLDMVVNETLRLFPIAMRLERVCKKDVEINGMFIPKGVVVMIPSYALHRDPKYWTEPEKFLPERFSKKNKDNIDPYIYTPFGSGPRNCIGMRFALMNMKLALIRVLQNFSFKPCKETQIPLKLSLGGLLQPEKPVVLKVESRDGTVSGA
CYP3A4D3-24, sequence (P08684 with tags, fused parts or gaps): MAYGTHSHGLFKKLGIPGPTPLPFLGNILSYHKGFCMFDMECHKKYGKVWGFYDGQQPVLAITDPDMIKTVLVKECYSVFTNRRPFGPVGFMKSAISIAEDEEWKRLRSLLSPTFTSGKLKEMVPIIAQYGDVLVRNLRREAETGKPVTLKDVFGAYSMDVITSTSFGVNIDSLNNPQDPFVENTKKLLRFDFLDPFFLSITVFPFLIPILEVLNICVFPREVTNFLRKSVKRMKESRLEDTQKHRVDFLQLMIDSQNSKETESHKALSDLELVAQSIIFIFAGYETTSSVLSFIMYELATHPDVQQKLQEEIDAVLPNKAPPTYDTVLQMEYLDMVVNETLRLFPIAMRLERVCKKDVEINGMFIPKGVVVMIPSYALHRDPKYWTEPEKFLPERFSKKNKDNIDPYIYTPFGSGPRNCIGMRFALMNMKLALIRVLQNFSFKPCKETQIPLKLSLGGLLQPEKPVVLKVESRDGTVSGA
CYP3A4 nanodiscs, sequence (P08684 whole entry): as the sequence (P08684 whole entry) above

Structure (SMILES): CCCCCCNC(=N)NC(=N)NCc1ccccc1 [HBB, N1-hexyl-N5-benzyl biguanide]
- IC50 (CYP3A4 epoxygenase; IC50, inhibition of CYP3A4 epoxygenase): 110 µM
- fold more potent than metformin, CYP3A4 epoxygenase (CYP3A4 epoxygenase; vs metformin): 50 fold and ~40 fold
- IC50 (MCF-7 cell line; MTT assay at 24 hours, 10% FBS, read-out: IC50, MCF-7 growth): ~20 µM and 20 µM
- fold more potent than metformin, MCF-7 growth (MCF-7 cell line; vs metformin): ~250 fold
- IC50 (MDA-MB-231): 22.5 µM
- fold more potent than metformin, delta 3-24 CYP3A4 spin shift (CYP3A4D3-24): ~12 fold
- fold more potent than metformin, CYP3A4 nanodisc spin shift (CYP3A4 nanodiscs): ~4 fold
- tumor growth, MDA-MB-231 xenograft (MDA-MB-231 xenograft): tumor growth wasn't inhibited; also recorded: no significant difference between the HBB and vehicle growth curves
- dose limiting toxicity [1]: weight loss
- MTD at 42 days ([1]; nude, ip daily, read-out: maximum tolerated dose (MTD)): 4 mg/kg
- rescue of MDA-MB-231 growth by 14,15-EET in the presence of the biguanide (MDA-MB-231 line): no protection
- extracellular acidification rate (ECAR) [2]: inhibits both OCR and ECAR
- oxygen consumption rate (OCR) [2]: inhibits oxygen consumption rate (OCR); also recorded: inhibits both OCR and ECAR
